Measurements published in patent US9409884B2 (Rigel Pharmaceuticals, Inc., priority 2012, dated 2016).

Biological target: AMPK
Test: AMPK activation, enzyme-linked immunosorbent assay
Type: biochemical
Details: Table 12, compounds of Table 5
In short: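 AMPK activation by test compounds was measured by enzyme-linked immunosorbent assay.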

| EC50 [µM] | Compound |
| --- | --- |
| < 1 | O=C(NC1CCN(Cc2ccccc2)CC1)c1ccc(OC2CCN(c3ccc(C(F)(F)F)cc3)CC2)cc1Cl [Compound 5-47, N-(1-benzylpiperidin-4-yl)-2-chloro-4-(1-(4-(trifluoromethyl)phenyl)piperidin-4-yloxy)benzamide] |
| < 1 | N#Cc1ccc(N2CCC(Oc3cccc(C(=O)NC4CCN(Cc5ccccc5)CC4)c3)CC2)cc1 [Compound 5-48, N-(1-benzylpiperidin-4-yl)-3-(1-(4-cyanophenyl)piperidin-4-yloxy)benzamide] |
| < 1 | N#Cc1ccc(N2CCC(Oc3ccc(C(=O)NC4CCN(Cc5ccccc5)CC4)c(Cl)c3)CC2)cc1 [Compound 5-49, N-(1-benzylpiperidin-4-yl)-2-chloro-4-(1-(4-cyanophenyl)piperidin-4-yloxy)benzamide] |
| 1 to 10 | N#Cc1ccc(CN2CCC(Oc3cccc(C(=O)NC4CCN(Cc5ccccc5)CC4)c3)CC2)cc1 [Compound 5-50, N-(1-benzylpiperidin-4-yl)-3-(1-(4-cyanobenzyl)piperidin-4-yloxy)benzamide] |
| < 1 | N#Cc1ccc(CN2CCC(Oc3ccc(C(=O)NC4CCN(Cc5ccccc5)CC4)c(Cl)c3)CC2)cc1 [Compound 5-51, N-(1-benzylpiperidin-4-yl)-2-chloro-4-(1-(4-cyanobenzyl)piperidin-4-yloxy)benzamide] |
| 1 to 10 | O=C(NC1CCN(Cc2ccccc2)CC1)c1cccc(OC2CCN(Cc3ccc(C(F)(F)F)cc3)CC2)c1 [Compound 5-52, N-(1-benzylpiperidin-4-yl)-3-(1-(4-(trifluoromethyl)benzyl)piperidin-4-yloxy)benzamide] |
| 10 to 20 | O=C(NC1CCN(Cc2ccccc2)CC1)c1cccc(OC2CCN(c3ccncc3)CC2)c1 [Compound 5-53, N-(1-benzylpiperidin-4-yl)-3-(1-(pyridin-4-yl)piperidin-4-yloxy)benzamide] |
| < 1 | O=C(NC1CCN(Cc2ccccc2)CC1)c1ccc(OC2CCN(Cc3ccc(OC(F)(F)F)cc3)CC2)c(Cl)c1 [Compound 5-54, N-(1-benzylpiperidin-4-yl)-3-chloro-4-(1-(4-(trifluoromethoxy)benzyl)piperidin-4-yloxy)benzamide] |
| < 1 | O=C(NC1CCN(Cc2ccccc2)CC1)c1ccc(OC2CCN(Cc3ccc(C(F)(F)F)cc3)CC2)c(F)c1 [Compound 5-55, N-(1-benzylpiperidin-4-yl)-3-fluoro-4-(1-(4-(trifluoromethyl)benzyl)piperidin-4-yloxy)benzamide] |
| < 1 | O=C(NC1CCN(Cc2ccccc2)CC1)c1ccc(OC2CCN(Cc3ccc(C(F)(F)F)cc3)CC2)c(Cl)c1 [Compound 5-56, N-(1-benzylpiperidin-4-yl)-3-chloro-4-(1-(4-(trifluoromethyl)benzyl)piperidin-4-yloxy)benzamide] |
| < 1 | O=C(NC1CCN(Cc2ccccc2)CC1)c1ccc(OC2CCN(Cc3ccc(OC(F)(F)F)cc3)CC2)c(F)c1 [Compound 5-57, N-(1-benzylpiperidin-4-yl)-3-fluoro-4-(1-(4-(trifluoromethoxy)benzyl)piperidin-4-yloxy)benzamide] |
| 1 to 10 | CN1CCC(NC(=O)c2ccc(OC3CCN(Cc4ccc(C(F)(F)F)cc4)CC3)c(Cl)c2)CC1 [Compound 5-58, 3-chloro-N-(1-methylpiperidin-4-yl)-4-(1-(4-(trifluoromethyl)benzyl)piperidin-4-yloxy)benzamide] |
| < 1 | O=C(NC1CCN(Cc2ccccc2)CC1)c1ccc(OC2CCN(Cc3cccc(C(F)(F)F)c3)CC2)c(F)c1 [Compound 5-59, N-(1-benzylpiperidin-4-yl)-3-fluoro-4-(1-(3-(trifluoromethyl)benzyl)piperidin-4-yloxy)benzamide] |
| < 1 | O=C(NC1CCN(Cc2ccccc2)CC1)c1ccc(OC2CCN(Cc3cccc(C(F)(F)F)c3)CC2)c(Cl)c1 [Compound 5-60, N-(1-benzylpiperidin-4-yl)-3-chloro-4-(1-(3-(trifluoromethyl)benzyl)piperidin-4-yloxy)benzamide] |
| < 1 | O=C(NC1CCN(Cc2ccccc2)CC1)c1ccc(OC2CCN(Cc3ccc(F)cc3)CC2)c(F)c1 [Compound 5-61, N-(1-benzylpiperidin-4-yl)-3-fluoro-4-(1-(4-fluorobenzyl)piperidin-4-yloxy)benzamide] |
| < 1 | O=C(NC1CCN(Cc2ccccc2)CC1)c1cc(Cl)c(OC2CCN(Cc3cccc(C(F)(F)F)c3)CC2)c(Cl)c1 [Compound 5-62, N-(1-benzylpiperidin-4-yl)-3,5-dichloro-4-(1-(3-(trifluoromethyl)benzyl)piperidin-4-yloxy)benzamide] |
| < 1 | O=C(NC1CCN(Cc2ccccc2)CC1)c1ccc(OC2CCN(Cc3ccc(OC(F)(F)F)cc3)CC2)cc1 [Compound 5-63, N-(1-benzylpiperidin-4-yl)-4-(1-(4-(trifluoromethoxy)benzyl)piperidin-4-yloxy)benzamide] |
| < 1 | O=C(NC1CCN(Cc2ccccc2)CC1)c1ccc(OC2CCN(Cc3ccc(Cl)cc3)CC2)c(F)c1 [Compound 5-64, N-(1-benzylpiperidin-4-yl)-4-(1-(4-chlorobenzyl)piperidin-4-yloxy)-3-fluorobenzamide] |

| EC50 [µM] | Compound |
| --- | --- |
| < 1 | O=C(NC1CCN(Cc2ccccc2)CC1)c1ccc(OC2CCN(Cc3ccc(Cl)cc3)CC2)c(Cl)c1 [Compound 5-65, N-(1-benzylpiperidin-4-yl)-3-chloro-4-(1-(4-chlorobenzyl)piperidin-4-yloxy)benzamide] |
| < 1 | O=C(NC1CCN(Cc2ccc(F)cc2)CC1)c1ccc(OC2CCN(Cc3ccc(Cl)cc3)CC2)c(Cl)c1 [Compound 5-66, 3-chloro-4-(1-(4-chlorobenzyl)piperidin-4-yloxy)-N-(1-(4-fluorobenzyl)piperidin-4-yl)benzamide] |
| < 1 | N#Cc1ccc(CN2CCC(Oc3ccc(C(=O)NC4CCN(Cc5ccccc5)CC4)cc3Cl)CC2)cc1 [Compound 5-67, N-(1-benzylpiperidin-4-yl)-3-chloro-4-(1-(4-cyanobenzyl)piperidin-4-yloxy)benzamide] |
| < 1 | Cc1ccc(CN2CCC(Oc3ccc(C(=O)NC4CCN(Cc5ccc(F)cc5)CC4)cc3Cl)CC2)cc1 [Compound 5-68, 3-chloro-N-(1-(4-fluorobenzyl)piperidin-4-yl)-4-(1-(4-methylbenzyl)piperidin-4-yloxy)benzamide] |
| < 1 | O=C(NC1CCN(Cc2ccccc2)CC1)c1ccc(OC2CCN(Cc3ccc(F)c(F)c3)CC2)c(F)c1 [Compound 5-69, N-(1-benzylpiperidin-4-yl)-4-(1-(3,4-difluorobenzyl)piperidin-4-yloxy)-3-fluorobenzamide] |
| < 1 | N#Cc1ccc(CN2CCC(Oc3ccc(C(=O)NC4CCN(Cc5ccc(Cl)cc5)CC4)cc3F)CC2)cc1 [Compound 5-70, N-(1-(4-chlorobenzyl)piperidin-4-yl)-4-(1-(4-cyanobenzyl)piperidin-4-yloxy)-3-fluorobenzamide] |
| < 1 | O=C(NC1CCN(Cc2ccc(Cl)cc2)CC1)c1ccc(OC2CCN(Cc3ccc(F)c(F)c3)CC2)c(F)c1 [Compound 5-71, N-(1-(4-chlorobenzyl)piperidin-4-yl)-4-(1-(3,4-difluorobenzyl)piperidin-4-yloxy)-3-fluorobenzamide] |
| < 1 | O=C(NC1CCN(Cc2ccc(Cl)cc2)CC1)c1ccc(OC2CCN(Cc3ccc(Cl)cc3)CC2)c(F)c1 [Compound 5-72, N-(1-(4-chlorobenzyl)piperidin-4-yl)-4-(1-(4-chlorobenzyl)piperidin-4-yloxy)-3-fluorobenzamide] |
| < 1 | Cc1ccc(CN2CCC(Oc3ccc(C(=O)NC4CCN(Cc5ccc(Cl)cc5)CC4)cc3F)CC2)cc1 [Compound 5-73, N-(1-(4-chlorobenzyl)piperidin-4-yl)-3-fluoro-4-(1-(4-methylbenzyl)piperidin-4-yloxy)benzamide] |
| < 1 | O=C(NC1CCN(Cc2ccccc2)CC1)c1ccc(OC2CCN(Cc3ccc(F)c(F)c3)CC2)c(Cl)c1 [Compound 5-74, N-(1-benzylpiperidin-4-yl)-3-chloro-4-(1-(3,4-difluorobenzyl)piperidin-4-yloxy)benzamide] |
| < 1 | O=C(NC1CCN(Cc2ccccc2)CC1)c1cc(Cl)c(OC2CCN(Cc3ccc(Cl)cc3)CC2)c(Cl)c1 [Compound 5-75, N-(1-benzylpiperidin-4-yl)-3,5-dichloro-4-(1-(4-chlorobenzyl)piperidin-4-yloxy)benzamide] |
| < 1 | O=C(NC1CCN(Cc2ccccc2)CC1)c1cc(Cl)c(OC2CCN(Cc3ccc(F)c(F)c3)CC2)c(Cl)c1 [Compound 5-76, N-(1-benzylpiperidin-4-yl)-3,5-dichloro-4-(1-(3,4-difluorobenzyl)piperidin-4-yloxy)benzamide] |
| < 1 | N#Cc1ccc(CN2CCC(Oc3c(Cl)cc(C(=O)NC4CCN(Cc5ccccc5)CC4)cc3Cl)CC2)cc1 [Compound 5-77, N-(1-benzylpiperidin-4-yl)-3,5-dichloro-4-(1-(4-cyanobenzyl)piperidin-4-yloxy)benzamide] |
| < 1 | CC(C)(C)OC(=O)N1CCC(NC(=O)c2ccc(OC3CCN(Cc4ccc(C#N)cc4)CC3)cc2)CC1 [Compound 5-78, tert-butyl 4-(4-(1-(4-cyanobenzyl)piperidin-4-yloxy)benzamido)piperidine-1-carboxylate] |
| > 100 | N#Cc1ccc(CN2CCC(Oc3ccc(C(=O)NC4CCNCC4)cc3)CC2)cc1 [Compound 5-79, 4-(1-(4-cyanobenzyl)piperidin-4-yloxy)-N-(piperidin-4-yl)benzamide] |
| < 1 | O=C(NC1CCN(Cc2ccc(Cl)cc2)CC1)c1ccc(OC2CCN(Cc3ccc(Cl)c(Cl)c3)CC2)c(F)c1 [Compound 5-80, N-(1-(4-chlorobenzyl)piperidin-4-yl)-4-(1-(3,4-dichlorobenzyl)piperidin-4-yloxy)-3-fluorobenzamide] |
| < 1 | N#Cc1ccc(N2CCC(Oc3ccc(C(=O)NC4CCN(Cc5ccc(Cl)cc5)CC4)cc3F)CC2)cc1 [Compound 5-81, N-(1-(4-chlorobenzyl)piperidin-4-yl)-4-(1-(4-cyanophenyl)piperidin-4-yloxy)-3-fluorobenzamide] |
| < 1 | O=C(NC1CCN(Cc2ccccc2)CC1)c1ccc(OC2CCN(Cc3ccc(Cl)c(Cl)c3)CC2)c(F)c1 [Compound 5-82, N-(1-benzylpiperidin-4-yl)-4-(1-(3,4-dichlorobenzyl)piperidin-4-yloxy)-3-fluorobenzamide] |
